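Five compound concentrations were applied to cells in 96-well plates for 48 hours; endpoints were derived by simple linear interpolation of the resulting dose-response curve. GI50 marks 50% less growth. The concentration for full growth arrest is given as TGI.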
Columns and labels:
Assay in all cases: NCI anticancer screen, dose series, 48 h
[1] = system: MDA-MB-435
[2] = system: TK-10 renal
[3] = system: SN12C renal
[4] = system: HOP-62 NSCLC
[5] = system: HOP-92 NSCLC
[6] = system: A549 NSCLC
[7] = system: BT-549 breast
[8] = system: T-47D breast
[9] = system: U251 CNS
[10] = system: MOLT-4 leukemia

## CC(C)C12CCC3(CCC4C(C)(C(=O)O)CCCC4(C)C3C1)C(CN)C2 (configuration not stated)
[1]
  TGI: > 100 µM
[2]
  TGI: > 100 µM
[3]
  TGI: 43.3 µM
[4]
  TGI: > 100 µM
[5]
  TGI: > 100 µM
[6]
  TGI: > 100 µM
[7]
  TGI: 95.5 µM
[8]
  TGI: > 100 µM
[9]
  TGI: > 100 µM

## O=C1C(=O)c2c(ccc3ccccc23)-c2ccccc21
[1]
  GI50: 1.59 µM
  TGI: 3.52 µM
[2]
  GI50: 2.17 µM
  TGI: 7.54 µM
[3]
  GI50: 1.6 µM
  TGI: 3.31 µM
[10]
  GI50: 2.37 µM
  TGI: 6.83 µM
[4]
  GI50: 1.9 µM
  TGI: 4.56 µM
[5]
  GI50: 1.91 µM
  TGI: 5.52 µM
[6]
  GI50: 2.83 µM
  TGI: 8.3 µM
[7]
  GI50: 2.05 µM
  TGI: 4.62 µM
[8]
  GI50: 1.75 µM
  TGI: 3.96 µM
[9]
  GI50: 1.67 µM
  TGI: 3.56 µM

## O=C1COc2c(CCNCCN(C(=O)CCNCCc3ccc(Cl)c(Cl)c3)C3CCCCC3)ccc(O)c2N1
[1]
  GI50: 14.9 µM
  TGI: 28.5 µM
[2]
  GI50: 14.1 µM
  TGI: 28.8 µM
[3]
  GI50: 14.7 µM
  TGI: 30.3 µM
[10]
  GI50: 15.8 µM
  TGI: 34.5 µM
[4]
  GI50: 15.3 µM
  TGI: 32.7 µM
[5]
  GI50: < 0.0353 µM
  TGI: 17.5 µM
[6]
  GI50: 21.8 µM
  TGI: 44.8 µM
[7]
  GI50: 14.3 µM
  TGI: 29 µM
[8]
  GI50: 17.3 µM
  TGI: 40.1 µM
[9]
  GI50: 16.3 µM
  TGI: 32 µM

## Cc1c(-c2ccc(N3CCc4cccc(C(=O)Nc5nc6ccccc6s5)c4C3)nc2C(=O)O)cnn1CC12CC3CC(CC(C3)C1)C2
[1]
  GI50: 6.77 µM
  TGI: 28.3 µM
[2]
  GI50: 2.99 µM
  TGI: 13.5 µM
[3]
  GI50: 6.93 µM
  TGI: 29.8 µM
[10]
  GI50: < 0.01 µM
[4]
  GI50: 10.1 µM
  TGI: 27.8 µM
[5]
  GI50: < 0.01 µM
  TGI: < 0.01 µM
[6]
  GI50: 4.97 µM
  TGI: 25.3 µM
[7]
  GI50: 3.73 µM
  TGI: 16.4 µM
[8]
  GI50: 6.59 µM
  TGI: 30.7 µM
[9]
  GI50: 7.04 µM
  TGI: 30.2 µM

## Nc1ccc(N)c2c1C(=O)c1cccc([N+](=O)[O-])c1C2=O
[1]
  GI50: 6.3 µM
  TGI: > 100 µM
[2]
  GI50: 3.21 µM
  TGI: > 71.8 µM
[3]
  GI50: 2.48 µM
  TGI: > 100 µM
[10]
  GI50: 8.33 µM
  TGI: > 91.4 µM
[4]
  GI50: 1.62 µM
  TGI: 7.88 µM
[5]
  GI50: 16.3 µM
  TGI: > 100 µM
[6]
  GI50: 1.47 µM
[7]
  GI50: 2.54 µM
  TGI: > 31.2 µM
[8]
  GI50: 6.99 µM
  TGI: > 100 µM
[9]
  GI50: 2.85 µM
  TGI: > 100 µM

## COc1cc([C@H]2c3cc(O)c(OC)cc3C[C@]3(O)[C@@H]2CO[C@@H]3O)ccc1O
[1]
  TGI: > 100 µM
[2]
  TGI: > 100 µM
[3]
  TGI: > 100 µM
[10]
  TGI: > 100 µM
[4]
  TGI: > 100 µM
[5]
  TGI: > 100 µM
[6]
  TGI: > 100 µM
[7]
  TGI: > 100 µM
[8]
  TGI: > 100 µM
[9]
  TGI: > 100 µM

## CS(=O)(=O)Nc1ccc(Nc2c3ccccc3nc3cc(Cl)ccc23)cc1
[1]
  GI50: 3.48 µM
  TGI: 17.1 µM
[2]
  GI50: 5.07 µM
  TGI: 18.7 µM
[3]
  GI50: 0.654 µM
  TGI: 16.1 µM
[10]
  GI50: 0.214 µM
  TGI: 16.2 µM
[4]
  GI50: 0.958 µM
  TGI: 18 µM
[5]
  GI50: 0.334 µM
  TGI: 4.7 µM
[6]
  GI50: 0.188 µM
  TGI: 12.1 µM
[7]
  GI50: 3.16 µM
  TGI: 20 µM
[8]
  GI50: 0.987 µM
  TGI: 13.3 µM
[9]
  GI50: 0.828 µM
  TGI: 13.5 µM
